Source: patent US10023592B2, “Bromodomain inhibitors” (Celgene Quanticel Research, Inc., priority 2013, dated 2018)

Legend:
BRD4(BD1) = BRD4(BD1) (Homo sapiens (Human), UniProt O60885); test: In vitro enzyme inhibition assay (BRD4 AlphaScreen); assay type: binding
Outline: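 AlphaScreen proximity readout, using streptavidin donor and Ni-chelate acceptor beads at 5 μg/mL final, monitors biotin-H4 tetraacetylated peptide interaction with purified His-tagged BRD4.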

[1] = test system: Raji, human Burkitts lymphoma cells; test: Cell-MTS proliferation assay, Raji; assay type: cell-based; settings: Homo sapiens, 168 hr
Outline: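 Cells were seeded per 96-well at densities giving ~90% confluence by day 7 (Raji 15,000, HL-60 5,000, NCI-H460 3,000) and dosed 24 hr later with an 11-point dilution, 100 μM to 2.0 nM final. Seven-day MTS colorimetric read at OD490; IC50 from background-subtracted, DMSO-normalised values.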

[2] = test system: NCI-H460, human non-small cell lung cancer cells; test: Cell-MTS proliferation assay, NCI-H460; assay type: cell-based; settings: Homo sapiens, 168 hr
Experimental: (§1) The Cell-MTS assay is a 7-day plate-based colorimetric assay which quantifies the amount of newly generated NADH in the presence or absence of test compound. The NADH level is used for the quantification of cancer cell proliferation.
(§2) Established cancer cell lines with a variety of driving mutations were obtained from American Type Culture Collection (ATCC) and routinely passaged according to ATCC protocols. For routine assay, these cells were seeded at densities which enabled ˜90% confluence after 7 days of culture. Raji, human Burkitts lymphoma cells, (cMYC) were seeded at 15,000 cells per 96-well. HL-60, human proleukemia cells, (NRAS, p16, p53, c-Myc amplified) were seeded at 5,000 cells per 96-well. NCI-H460, human non-small cell lung cancer cells, (KRAS, PIK3CA, STLK11, p16) were seeded at 3,000 cells per 96-well. 24 hr after plating, cells received an 11-point dilution of test compound with final concentration ranges from 100 μM to 2.0 nM. […] At the end of this incubation period, 80 μL of media is removed and 20 μL of CellTiter 96® AQueous Non-Radioactive Cell Proliferation Assay soln (Promega) was added. The cells were incubated until the OD490 was >0.6. IC50 values were calculated using the IDBS XLfit software package and include background subtracted OD490 values and normalization to DMSO controls. Cellular proliferation IC50 values were uploaded and archived using the Chem Biography Platform.

[3] = test system: HL-60, human proleukemia cells; test: Cell-MTS proliferation assay, HL-60; assay type: cell-based; settings: Homo sapiens, 168 hr
Experimental: as §1, §2

[4] = in vitro enzyme inhibition assay
[5] = NCI-H460, Cell-MTS proliferation
[6] = Cell-MTS proliferation, Raji cells
[7] = Cell-MTS proliferation, NCI-H460 cells
[8] = Cell-MTS proliferation, HL-60 cells
[9] = Raji, Cell-MTS, class symbols A/B/C
[10] = NCI-H460, Cell-MTS, class symbols A/B/C
[11] = HL-60, Cell-MTS, class symbols A/B/C

Structure (SMILES)	IC50 (BRD4(BD1); [4]) [nM]	IC50 ([1]; Raji, Cell-MTS proliferation) [nM]	IC50 [2, 5] [nM]	IC50 ([3]; HL-60, Cell-MTS proliferation) [nM]	IC50 [1, 6] [nM]	IC50 [2, 7] [nM]	IC50 [3, 8] [nM]	IC50 (BRD4(BD1); class symbols A/B/C) [nM]	IC50 [1, 9] [nM]	IC50 [2, 10] [nM]	IC50 [3, 11] [nM]
Cc1cc(-c2cc(S(C)(=O)=O)ccc2OCC2CC2)cn(CC(C)C)c1=O [Example 243, 5-[2-(cyclopropylmethoxy)-5-methylsulfonylphenyl]-3-methyl-1-(2-methylpropyl)pyridin-2-one]	500 to 5000	> 5000	> 5000	500 to 5000							
Cn1cc(-c2cc(S(C)(=O)=O)ccc2OCC2CC2)ccc1=O [Example 98, 5-[2-(cyclopropylmethoxy)-5-methylsulfonylphenyl]-1-methylpyridin-2-one]								500 to 5000	500 to 5000	> 5000	500 to 5000
CCS(=O)(=O)Nc1ccc(Oc2ccc(F)cc2F)c(-c2cn(C)c(=O)c3ccncc23)c1 [Example 127, N-[4-(2,4-difluorophenoxy)-3-(2-methyl-1-oxo-2,6-naphthyridin-4-yl)phenyl]ethanesulfonamide]								< 500	< 500	> 5000	< 500
CCS(=O)(=O)Nc1ncc(OCC2CC2)c(-c2cn(C)c(=O)c3c2CCCC3)n1 [Example 164, N-[5-(cyclopropylmethoxy)-4-(2-methyl-1-oxo-5,6,7,8-tetrahydroisoquinolin-4-yl)pyrimidin-2-yl]ethanesulfonamide]	< 500	< 500	> 5000	500 to 5000							
Cn1cc(-c2cc(CS(C)(=O)=O)ccc2OCC(F)(F)F)c2ccccc2c1=O [Example 488, 2-methyl-4-[5-(methylsulfonylmethyl)-2-(2,2,2-trifluoroethoxy)phenyl]isoquinolin-1-one]	< 500				< 500	> 5000	< 500				
CCS(=O)(=O)Nc1ccc(OC2CCC(F)(F)CC2)c(-c2cc(C)c(=O)n(C)c2)c1 [Example 449, N-[4-(4,4-difluorocyclohexyl)oxy-3-(1,5-dimethyl-6-oxopyridin-3-yl)phenyl] ethanesulfonamide]	< 500				< 500	> 5000	< 500				
Cn1cc(-c2cc(S(C)(=O)=O)ccc2OCC2CC2)c2occc2c1=O [Example 377, 7-[2-(cyclopropylmethoxy)-5-methylsulfonylphenyl]-5-methylfuro[3,2-c]pyridin-4-one]	< 500				< 500	> 5000	< 500				
CCS(=O)(=O)Nc1ccc(Oc2ccc(F)cc2F)c(-c2cc(N)c(=O)n(C)c2)c1 [Example 115, N-[3-(5-amino-1-methyl-6-oxopyridin-3-yl)-4-(2,4-difluorophenoxy)phenyl]ethanesulfonamide]								< 500	< 500	> 5000	< 500
CCc1cnc(NS(=O)(=O)CC)nc1-c1cc(C)c(=O)n(C)c1 [Example 307, N-[4-(1,5-dimethyl-6-oxopyridin-3-yl)-5-ethylpyrimidin-2-yl] ethanesulfonamide]	< 500	< 500	> 5000	< 500							
Cn1cc(-c2cn(CS(C)(=O)=O)c(=O)cc2OCC2CC2)c2ccccc2c1=O [Example 384, 4-[4-(cyclopropylmethoxy)-1-(methylsulfonylmethyl)-6-oxopyridin-3-yl]-2-methylisoquinolin-1-one]	< 500				500 to 5000	> 5000	< 500				
CCS(=O)(=O)c1ccc(Nc2ccc(F)cc2F)c(-c2cc(C)c(=O)n(C)c2)c1 [Example 396, 5-[2-(2,4-difluoroanilino)-5-ethylsulfonylphenyl]-1,3-dimethylpyridin-2-one]	< 500				< 500	> 5000	< 500				
CCS(=O)(=O)Nc1ccc(O[C@H]2CC[C@@H](O)CC2)c(-c2cc(C)c(=O)n(C)c2)c1 [Example 431, N-[3-(1,5-dimethyl-6-oxopyridin-3-yl)-4-(cis-4-hydroxycyclohexyl)oxyphenyl]ethanesulfonamide]	< 500				500 to 5000	> 5000	< 500				
COc1ccc(-c2cc(N(C)C)c(=O)n(C)c2)cc1NS(C)(=O)=O [Example 113, N-[5-[5-(dimethylamino)-1-methyl-6-oxopyridin-3-yl]-2-methoxyphenyl]methanesulfonamide]								< 500	500 to 5000	500 to 5000	< 500
CCS(=O)(=O)Nc1ccc(Oc2ccc(F)cc2F)c(-c2cc(OC)c(=O)n(C)c2)c1 [Example 443, N-[4-(2,4-difluorophenoxy)-3-(5-methoxy-1-methyl-6-oxopyridin-3-yl)phenyl]ethanesulfonamide]	< 500				< 500	> 5000	< 500				
CCS(=O)(=O)c1ccc(OCC2CC2)c(-c2cn(C)c(=O)c3occc23)c1 [Example 252, 4-[2-(cyclopropylmethoxy)-5-ethylsulfonylphenyl]-6-methylfuro[2,3-c]pyridine-7-one]	< 500	< 500	> 5000	< 500							
COCC1COc2cc(S(C)(=O)=O)cc(-c3cc(C)c(=O)n(C)c3)c2O1 (stereo not shown) [Example 498, 5-[3-(methoxymethyl)-7-methylsulfonyl-2,3-dihydro-1,4-benzodioxin-5-yl]-1,3-dimethylpyridin-2-one]	< 500				> 5000	> 5000	500 to 5000				

Further lines, results first:

IC50 (BRD4(BD1); [4]) [nM]	IC50 ([1]; Raji, Cell-MTS proliferation) [nM]	IC50 [2, 5] [nM]	IC50 ([3]; HL-60, Cell-MTS proliferation) [nM]	IC50 [1, 6] [nM]	IC50 [2, 7] [nM]	IC50 [3, 8] [nM]	IC50 (BRD4(BD1); class symbols A/B/C) [nM]	IC50 [1, 9] [nM]	IC50 [2, 10] [nM]	IC50 [3, 11] [nM]	Structure (SMILES)
< 500	500 to 5000	> 5000	< 500								CCS(=O)(=O)Cc1ccc(Oc2ccc(F)cc2F)c(-c2cc(OCC(F)(F)F)c(=O)n(C)c2)c1 [Example 292, 5-[2-(2,4-difluorophenoxy)-5-(ethylsulfonylmethyl)phenyl]-1-methyl-3-(2,2,2-trifluoroethoxy)pyridin-2-one]
< 500				500 to 5000	> 5000	< 500					Cc1cc(-c2cc(S(C)(=O)=O)ccc2NC2CCOCC2)cn(C)c1=O [Example 436, 1,3-dimethyl-5-[5-methylsulfonyl-2-(oxan-4-ylamino)phenyl]pyridin-2-one]
< 500	< 500	> 5000	< 500								Cn1cc(-c2cc(S(C)(=O)=O)ccc2OCC2CC2)c2ccoc2c1=O [Example 254, 4-[2-(cyclopropylmethoxy)-5-methylsulfonylphenyl]-6-methylfuro[2,3-c]pyridine-7-one]
< 500	< 500	500 to 5000	< 500								Cn1cc(-c2cc(OCc3ccccc3OC(F)F)cc(S(C)(=O)=O)c2)c2ccoc2c1=O [Example 348, 4-[3-[[2-(difluoromethoxy)phenyl]methoxy]-5-methylsulfonylphenyl]-6-methylfuro[2,3-c]pyridin-7-one]
< 500				< 500	> 5000	< 500					COc1cc(-c2cc(NS(C)(=O)=O)ccc2Oc2ccc(F)cc2F)cn(C)c1=O [Example 442, N-[4-(2,4-difluorophenoxy)-3-(5-methoxy-1-methyl-6-oxopyridin-3-yl)phenyl]methanesulfonamide]
< 500				< 500	> 5000	< 500					CCS(=O)(=O)c1ccc(NC2CCCC2)c(-c2cc(C)c(=O)n(C)c2)c1 [Example 416, 5-[2-(cyclopentylamino)-5-ethylsulfonylphenyl]-1,3-dimethylpyridin-2-one]
< 500	< 500	> 5000	< 500								CCS(=O)(=O)Nc1ccc(Oc2ccc(F)cc2F)c(-c2cn(C)c(=O)c3occc23)c1 [Example 253, N-[4-(2,4-difluorophenoxy)-3-(6-methyl-7-oxofuro[2,3-c]pyridin-4-yl)phenyl]ethanesulfonamide]
< 500	500 to 5000	> 5000	500 to 5000								CCS(=O)(=O)c1ccc(OCC2CC2)c(-c2cc(F)c(=O)n(C)c2)c1 [Example 274, 5-[2-(cyclopropylmethoxy)-5-ethylsulfonylphenyl]-3-fluoro-1-methylpyridin-2-one]
< 500				< 500	> 5000	< 500					CCOc1ccc(S(=O)(=O)CC)cc1-c1cc(N(C)C)c(=O)n(C)c1 [Example 469, 3-(dimethylamino)-5-(2-ethoxy-5-ethylsulfonylphenyl)-1-methylpyridin-2-one]
